Data on one compound can be found in patent publication US20030180249A1, “Dosage forms for hygroscopic active ingredients” (priority 2002, published 2003).

Type in all cases: physicochemical
Data set [1] is described as follows: Storage stability of valproate resinates (severe conditions): moisture uptake and appearance. To be noted: 40° C., 75% Relative Humidity. How it is done: One gram of each dry resin and resinate were weighed out accurately on an analytical balance in an aluminum dish along with a sample of sodium valproate. They were dried for two hours @60° C. in vaccuo and then placed in an incubator was at 40° C. and 75% Relative Humidity. After 17 hours the samples were removed from the incubator and weighed and observations on appearance were noted. % weight increases were calculated.

Data set [2] is described as follows: Storage stability of valproate resinates (ambient conditions): appearance over time. To be noted: ambient 25° C., 56% relative humidity. How it is done: The samples from Example 3 were re-dried @60° C. in vaccuo overnight and then exposed to ambient conditions. During the test the ambient temperature was 25° C. and relative humidity was 56%.
The nature of data set [3]: Release of valproate from resinate, flow-thru filtration cell, USP 24 valproic acid dissolution medium. To be noted: 37° C., equivalent of 60 mg sodium valproate. The method, then: The release of valproate from Resinate A was evaluated and compared to that of sodium valproate. The evaluation was performed using a 50 ml Millipore flow-thru filtration cell operated at 37° C. The dissolution medium was prepared as described in the US Pharmacopeia 24 monograph for Valproic Acid (page 1733).
An amount for resinate containing the equivalent of 60 mg of sodium valproate was used for one test and 60 mg of sodium valproate for the other. Fractions were collected at 20, 40, and 60 minutes. Sample preparation and analysis were done according to the US Pharmacopeia 24 monograph for Valproic Acid (page 1733).

As for `CCCC(CCC)C(=O)[O-].[Na+]` [Na Valproate, sodium valproate], in data set [1] (17 hours, after drying 2 h at 60° C. in vacuo), the “Moisture uptake (%)” value is 40.4%. The “Observation (appearance)” value in data set [1] (after 17 hours) is on record as “Liquid”; in data set [2] (time 7:30), “Sodium valproate sample is sticky;”; in data set [2] (time 7:45), “Sodium valproate sample is sticky;”. In addition, in data set [3] (20 mins), the “% Valproate dissolved or released, 20 mins” value was 81.9%. In addition, the “% Valproate dissolved or released, 40 mins” value in data set [3] (40 mins) stood at 97.8%. In data set [3] (60 mins), the “% Valproate dissolved or released, 60 mins” value turned out to be 100%. In addition, the “Total release” value in data set [3] is reported as 60.1 mg.
